Reference: PubChem BioAssay AID504726 (Broad Institute, 2011)
Activity calls are given as the source filed them.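 How the source made its calls: active means fitted half-maximal concentration for a cytotoxic signal drop no higher than ten times the top valid dose tested; inconclusive means flat curve between -70 and -30 percent, or an unreliable fit; inactive means flat within 30 percent, signal rise, or potency beyond limit.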

Assay: viability loss in HeLa cells – cell-based, 24 h, cherry-picked samples, cytotoxicity control, dose response (AID 504726);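 further: 0% = DMSO neutral controls and -100% = mitoxantrone positive controls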
Conditions: HeLa viability, CellTiter-Glo ATP luminescence, 24 h; at 35 µM (top of the series)

Structure (SMILES)	activity change, negative = cytotoxicity
COc1ccc(CNC(=O)C2CCC(CNC(=O)[C@@H]3Cc4ccccc4CN3)CC2)cc1 (stereo not given in full)	-2.6% (inactive)
NNC(=S)Nc1ccc(S(=O)(=O)N2CCOCC2)cc1	0.037% (inactive)
CCCOc1ccc(C=Nc2ccc(OC)c(S(=O)(=O)N3CCOCC3)c2)c(O)c1	19% (inactive)
C/C(=N/NC(=O)c1cc(O)c(O)c(O)c1)c1ccc([N+](=O)[O-])cc1	-1.35% (inactive)
NC(=S)NN=Cc1ccc(-c2ccc(S(=O)(=O)Nc3ncccn3)cc2)o1	-14.8% (inactive)
O=C(OCC(=O)N1N=C(c2ccc(Cl)cc2)CC1c1ccco1)c1cccnc1 (stereo not given)	-11.7% (inactive)
CCOc1ccc2noc3c2c1C(=O)c1ccccc1-3	-3.75% (inactive)
C=CCn1c(C)cc(-c2csc(NC(=O)CCc3nc4ccccc4c(=O)[nH]3)n2)c1C	-6.5% (inactive)
C=CCOC(=O)C1=C[C@H](c2csc3ccccc23)C[C@H](OCc2ccc(CO)cc2)O1	-9.53% (inactive)
O=C(O)c1ccc2c(c1)[C@@H]1C=CC[C@@H]1[C@H](c1ccccn1)N2	-31.8% (inactive)
Nc1nc(-c2ccc(C(=O)O)cc2)cs1	-2% (inactive)
COc1cccc(NC(=S)N2CCN(C(c3ccccc3)c3ccccc3)CC2)c1	-2.14% (inactive)
O=C(O)C(c1ccccc1)N1C(=O)/C(=C\c2ccc(-c3cccc(Cl)c3)o2)SC1=S (stereo not given)	-2.5% (inactive)
COCCN(CCOC)Cc1c(O)ccc2c1O/C(=C\c1ccco1)C2=O	-13.7% (inactive)
CNc1ccc2c3c(cccc13)C(=O)N(C)C2=O	-12.7% (inactive)
O=S(=O)(O)c1cc(O)c2cc(Nc3ccccc3)ccc2c1	-1.35% (inactive)
O=C(O)CCN1C(=O)/C(=C\c2ccc(-c3nc4ccccc4s3)o2)SC1=S	1.33% (inactive)
NNC(=O)CC1=NNC(=O)C1	-0.701% (inactive)
CC(C(=O)Nc1ccccc1)N1C(=O)c2ccccc2C1=O (stereo not given)	-8.7% (inactive)
COc1ccc(NC(=O)NS(=O)(=O)c2ccc(C)cc2)cn1	-5.07% (inactive)
COc1ccc(-c2cc(C(=O)N(C)CCc3ccc(OC)c(OC)c3)c3ccccc3n2)cc1	-7.16% (inactive)
Oc1ccc(-c2nc3ccccn3c2NCc2ccco2)cc1	-4.28% (inactive)

Structure (SMILES)	activity change, negative = cytotoxicity
CCNC(=O)COC(=O)c1cccc(Br)c1	-0.098% (inactive)
CC(=O)O[C@@H]1[C@@H](OC(C)=O)[C@H](n2ccc3cc([N+](=O)[O-])ccc32)OC[C@@H]1OC(C)=O	-3.68% (inactive)
CC(=O)N(C(C)=O)N1C(=O)c2cccc3c(N4CCOCC4)ccc(c23)C1=O	-2.78% (inactive)
CCOC(=O)C1CCCN(c2ccc([N+](=O)[O-])c3nonc23)C1 (stereo not given)	-8.2% (inactive)
CCN(Cc1ccccc1)C(=O)c1cccc(S(=O)(=O)N2CCN(Cc3ccccc3)CC2)c1	1.39% (inactive)
COC(=O)c1sc(C(F)(F)F)c(-c2ccccc2)c1S(=O)(=O)N1CCOCC1	-14.2% (inactive)
Cn1c2ccccc2c2cnn(CC(=O)Nc3cccc(F)c3)c(=O)c21	-9.52% (inactive)
COc1ccc(OC2CCN(S(=O)(=O)c3ccc(OC)cc3)CC2)cc1	-12.1% (inactive)
Nc1c(-c2ccccn2)cnn1-c1nc(-c2ccc(F)cc2)cs1	-5.27% (inactive)
Cc1ccc(C)c(OCC(=O)N(Cc2nnc(-c3ccccc3Cl)o2)C2CC2)c1	-0.736% (inactive)
O=C1C(=Cc2ccco2)CCC1=Cc1ccco1	-6.04% (inactive)
O=C(NC1CCCCC1)c1cc([N+](=O)[O-])ccc1N1CCOCC1	-0.855% (inactive)
O=c1cc(-c2ccc(O)c(O)c2)oc2cc(O[C@@H]3O[C@H](CO)[C@@H](O)[C@H](O)[C@H]3O)cc(O)c12	-8.55% (inactive)
O=c1ccc2cc3c4c(c2o1)CCCN4CCC3	-19.7% (inactive)
O=C(Nc1ccc2c(c1)OCO2)N1CCCc2ccccc21	-15.9% (inactive)
O=C(Cn1c2ccccc2c2nc3n(c(=O)c21)CCS3)Nc1ccccc1C(F)(F)F	-2.68% (inactive)
Cc1cc(Cl)ccc1N1C(=O)CC(NNC(=O)c2cccnc2)C1=O (stereo not given)	5.15% (inactive)
Cc1cc(C)nc(SCC(=O)N/N=C/c2cc(C)n(-c3ccccc3C)c2C)n1	-7.55% (inactive)
O=C1C=C(c2ccoc2)N2CCC[C@H]2C1	-3.65% (inactive)
C=CCN1C(=O)/C(=c2\sc3nc(=O)c(Cc4ccccc4Cl)nn3c2=O)c2ccccc21	-9.87% (inactive)
COc1cc(O)c(C(C)=O)c(CC(=O)O)c1	-0.718% (inactive)
Cc1cccc(NC(=O)CN2C(=O)NC(C)(c3ccc4ccccc4c3)C2=O)n1 (stereo not given)	-4.54% (inactive)

Structure (SMILES)	activity change, negative = cytotoxicity
COc1cc(C(=S)N2CCN(c3cccc(Cl)c3)CC2)ccc1O	9.69% (inactive)
CCN(CC)c1ccc2cc(S(=O)(=O)c3ccc(C)cc3)c(=O)oc2c1	-3.69% (inactive)
Cc1ccccc1C1=C/C(=C(\SS/C(C(=O)c2ccc(OCC(=O)O)c(Cl)c2Cl)=C2\C=C(c3ccccc3C)SS2)C(=O)c2ccc(OCC(=O)O)c(Cl)c2Cl)SS1	-8.33% (inactive)
CCOC(=O)c1c(/N=C/c2c(O)n(-c3cccc(C)c3)c(=O)[nH]c2=O)sc2c1CCCC2	-22.9% (inactive)
Cc1nc(Cl)c2c(n1)NC1=C(O2)C(=O)CCC1	-16.2% (inactive)
O=C(CSc1cccc2cccnc12)N/N=C/c1ccc(O)cc1	0.069% (inactive)
CC(=O)Nc1ccc(S(=O)(=O)Nc2ccccc2N2CCOCC2)cc1	1.3% (inactive)
COc1ccc(C(C)=O)cc1CN(C)C	9% (inactive)
O=C(Nc1ccccc1F)c1coc(=O)c(Br)c1	-20.2% (inactive)
FC(F)(F)c1nnc(-c2ccccc2)nc1N1CCCC1	-13.4% (inactive)
CCc1noc(C)c1C(=O)NCCc1c[nH]c2ccccc12	-12.2% (inactive)
CC(OC(=O)c1cn(C)c2ccccc12)C(=O)N1CCCC1 (stereo not given)	-9.43% (inactive)
CSc1ccc(/C=N/Nc2cccc(C(=O)O)c2)cc1	-13% (inactive)
Cc1cc(C(F)(F)F)c2c(N)c(C(=O)Nc3cc(C)on3)sc2n1	-0.48% (inactive)
CCC(=O)Oc1ccc2c(c1)O/C(=C\c1ccco1)C2=O	4.02% (inactive)
CC(C(=O)Nc1ccc(C(=O)O)c(O)c1)N1C(=O)/C(=C\c2ccco2)SC1=S (stereo not given)	-7.47% (inactive)
CCN(CC(=O)NCc1cccs1)C(=O)c1ccc(S(=O)(=O)Nc2ccccc2C)cc1	2.2% (inactive)
CC1=NCCc2c1[nH]c1cc(O)ccc21	-12.7% (inactive)
O=C(OCCN1C(=O)c2cccc3c(N4CCOCC4)ccc(c23)C1=O)c1ccc(Cl)cc1	-11.7% (inactive)
COc1ccccc1N1CCN(S(=O)(=O)c2c(C)[nH]c(C)c2C(=O)N2CCCC2)CC1	3.8% (inactive)
COc1ccc(C)cc1NC(=O)C(OC(=O)c1cnccn1)c1ccccc1 (stereo not given)	-9.07% (inactive)
CCN(C(=O)c1cccc(S(=O)(=O)N2CCc3ccccc32)c1)C1CCS(=O)(=O)C1 (stereo not given)	-1.74% (inactive)

Structure (SMILES)	activity change, negative = cytotoxicity
CCCCn1nc(CC(=O)O)c2ccccc2c1=O	-0.208% (inactive)
O=S(=O)(NCc1cccnc1)c1ccc(Cl)s1	4.67% (inactive)
CS(=O)(=O)Nc1nc2n(n1)C(c1ccccc1)C=C(c1ccc(Br)cc1)N2 (stereo not given)	-2.61% (inactive)
Cc1cccc(-c2nsc(SCC(=O)Nc3nccs3)n2)c1	-0.205% (inactive)
Cc1cc(OCC(=O)OC(C)(C)C)c2c3c(c(=O)oc2c1)CCC3	0.477% (inactive)
C=C(C)C(=O)Nc1cccc(C2=NOC3(C2)C[C@@H](C(N)=O)N(C(=O)C2(C)CC2)C3)c1 (stereo not given in full)	1.25% (inactive)
Nc1cccc2cc(S(=O)(=O)O)ccc12	5.33% (inactive)
O=C(O)/C=C/C(=O)Nc1ccc(Cc2ccc(NC(=O)/C=C/C(=O)O)cc2)cc1	6.62% (inactive)
COc1ccc(C(=O)OCC(=O)NC2CC2)cc1S(=O)(=O)Nc1ccc(C)cc1	3.27% (inactive)
CCN(C(=O)COC(=O)CNS(=O)(=O)c1ccc(SC)c([N+](=O)[O-])c1)C1CCCCC1	-5.61% (inactive)
Cc1ccc(C(=O)c2coc3ccc(O)c(Cl)c23)cc1	-2.67% (inactive)
O=C(NCCCN1CCCC1=O)c1ccc2c(c1)ncn2C1CCCCC1	-5.77% (inactive)
CC(=O)Oc1ccc2c(c1)Oc1cc(OC(C)=O)ccc1C21OC(=O)c2ccccc21	-1.71% (inactive)
CCCC1(C2CCCC2)NC(=O)NC1=O (stereo not given)	0.78% (inactive)
Cc1cc2nc(SCCN3CCOCC3)[nH]c2cc1C	-23.1% (inactive)
O=C(O)C1C2C=CC(CC2)C1C(=O)O (stereo not given)	-1.75% (inactive)
COc1ccc(NC(=O)COC(=O)c2c(-c3ccccc3)noc2C)cc1	6.45% (inactive)
O=C(CCN1C(=O)/C(=C\c2ccco2)SC1=S)Nc1ccc(C(=O)O)c(O)c1	4.66% (inactive)
C=CCNC(=O)c1cn(CC)c2cc(N3CCN(C(=O)c4ccco4)CC3)c(F)cc2c1=O	6.14% (inactive)
